Measurements taken from US9439903B2, “Process for the preparation of amorphous imatinib mesylate” (CADILA HEALTHCARE LIMITED, priority 2012, dated 2016).
Where a name gives a salt, the structure may show the parent alone.

Tests used:
Format in all cases: physicochemical
[1] = Stability of amorphous imatinib mesylate, accelerated storage 40° C./75% RH; conditions: 40° C. ± 2° C./75% ± 5% RH (Accelerated)
Description: (§1) The amorphous imatinib mesylate having less than 2.0% water, in particular, having less than 1.7% water, more particularly, water content is in the range of 0.7% to 1.7% as manufactured by the process of the present invention was subjected to stability for at least 6 months at 25° C./60% RH or at about 40° C./75% RH. The following Table-1 and Tabel-2 discloses the stability conditions and results.

[2] = Stability of amorphous imatinib mesylate, real time storage 25° C./60% RH; conditions: 25° C. ± 2° C./60% ± 5% RH (Real time)
Description: as §1

[3] = Hygroscopicity as per Ph. Eur. general chapter 5.11
Text: In one general aspect, the amorphous imatinib mesylate was subjected to study the hygroscopicity as per the Ph. Eur. general chapter 5.11.

Cc1ccc(NC(=O)c2ccc(CN3CCN(C)CC3)cc2)cc1Nc1nccc(-c2cccnc2)n1 [amorphous imatinib mesylate, Imatinib mesylate]
Description ([1]; 1 Month): Pale yellow
Related substance (%) by HPLC: Impurity-AMPPP ([1]; 1 Month): BQL
Related substance (%) by HPLC: Impurity-MPMBA ([1]; 1 Month): BQL
Related substance (%) by HPLC: Impurity-Methyl Ester analouge ([1]; 1 Month): BQL
Related substance (%) by HPLC: Impurity-NMPPP ([1]; 1 Month): BQL
Related substance (%) by HPLC: Single largest unknown Imp ([1]; 1 Month): 0.03%
Related substance (%) by HPLC: Total Impurities ([1]; 1 Month): 0.04%
Water (%) ([1]; 1 Month): 0.88%
X-Ray Diffraction ([1]; 1 Month): Amorphous
Description ([1]; 2 Month): Pale yellow
Related substance (%) by HPLC: Impurity-AMPPP ([1]; 2 Month): BQL
Related substance (%) by HPLC: Impurity-MPMBA ([1]; 2 Month): BQL
Related substance (%) by HPLC: Impurity-Methyl Ester analouge ([1]; 2 Month): BQL
Related substance (%) by HPLC: Impurity-NMPPP ([1]; 2 Month): BQL
Related substance (%) by HPLC: Single largest unknown Imp ([1]; 2 Month): 0.03%
Related substance (%) by HPLC: Total Impurities ([1]; 2 Month): 0.05%
Water (%) ([1]; 2 Month): 0.89%
X-Ray Diffraction ([1]; 2 Month): Amorphous
Description ([1]; 3 Month): Pale yellow
Related substance (%) by HPLC: Impurity-AMPPP ([1]; 3 Month): BQL
Related substance (%) by HPLC: Impurity-MPMBA ([1]; 3 Month): BQL
Related substance (%) by HPLC: Impurity-Methyl Ester analouge ([1]; 3 Month): BQL
Related substance (%) by HPLC: Impurity-NMPPP ([1]; 3 Month): BQL
Related substance (%) by HPLC: Single largest unknown Imp ([1]; 3 Month): 0.03%
Related substance (%) by HPLC: Total Impurities ([1]; 3 Month): 0.07%
Water (%) ([1]; 3 Month): 0.79%
X-Ray Diffraction ([1]; 3 Month): Amorphous
Description ([1]; 6 Month): Pale yellow
Related substance (%) by HPLC: Impurity-AMPPP ([1]; 6 Month): BQL
Related substance (%) by HPLC: Impurity-MPMBA ([1]; 6 Month): BQL
Related substance (%) by HPLC: Impurity-Methyl Ester analouge ([1]; 6 Month): BQL
Related substance (%) by HPLC: Impurity-NMPPP ([1]; 6 Month): BQL
Related substance (%) by HPLC: Single largest unknown Imp ([1]; 6 Month): 0.03%
Related substance (%) by HPLC: Total Impurities ([1]; 6 Month): 0.07%
Water (%) ([1]; 6 Month): 0.95%
X-Ray Diffraction ([1]; 6 Month): Amorphous
Description ([2]; 1 Month): Pale yellow
Related substance (%) by HPLC: Impurity-AMPPP ([2]; 1 Month): BQL
Related substance (%) by HPLC: Impurity-MPMBA ([2]; 1 Month): BQL
Related substance (%) by HPLC: Impurity-Methyl Ester analouge ([2]; 1 Month): BQL
Related substance (%) by HPLC: Impurity-NMPPP ([2]; 1 Month): BQL
Related substance (%) by HPLC: Single largest unknown Imp ([2]; 1 Month): 0.03%
Related substance (%) by HPLC: Total Impurities ([2]; 1 Month): 0.04%
Water (%) ([2]; 1 Month): 0.72%
X-Ray Diffraction ([2]; 1 Month): Amorphous
Description ([2]; 2 Months): Pale yellow
Related substance (%) by HPLC: Impurity-AMPPP ([2]; 2 Months): BQL
Related substance (%) by HPLC: Impurity-MPMBA ([2]; 2 Months): BQL
Related substance (%) by HPLC: Impurity-Methyl Ester analouge ([2]; 2 Months): BQL
Related substance (%) by HPLC: Impurity-NMPPP ([2]; 2 Months): BQL
Related substance (%) by HPLC: Single largest unknown Imp ([2]; 2 Months): 0.03%
Related substance (%) by HPLC: Total Impurities ([2]; 2 Months): 0.04%
Water (%) ([2]; 2 Months): 0.64%
X-Ray Diffraction ([2]; 2 Months): Amorphous
Description ([2]; 3 Months): Pale yellow
Related substance (%) by HPLC: Impurity-AMPPP ([2]; 3 Months): BQL
Related substance (%) by HPLC: Impurity-MPMBA ([2]; 3 Months): BQL
Related substance (%) by HPLC: Impurity-Methyl Ester analouge ([2]; 3 Months): BQL
Related substance (%) by HPLC: Impurity-NMPPP ([2]; 3 Months): BQL
Related substance (%) by HPLC: Single largest unknown Imp ([2]; 3 Months): 0.03%
Related substance (%) by HPLC: Total Impurities ([2]; 3 Months): 0.05%
Water (%) ([2]; 3 Months): 0.65%
X-Ray Diffraction ([2]; 3 Months): Amorphous
Description ([2]; 6 Months): Pale yellow
Related substance (%) by HPLC: Impurity-AMPPP ([2]; 6 Months): BQL
Related substance (%) by HPLC: Impurity-MPMBA ([2]; 6 Months): BQL
Related substance (%) by HPLC: Impurity-Methyl Ester analouge ([2]; 6 Months): BQL
Related substance (%) by HPLC: Impurity-NMPPP ([2]; 6 Months): BQL
Related substance (%) by HPLC: Single largest unknown Imp ([2]; 6 Months): 0.03%
Related substance (%) by HPLC: Total Impurities ([2]; 6 Months): 0.06%
Water (%) ([2]; 6 Months): 0.69%
X-Ray Diffraction ([2]; 6 Months): Amorphous
hygroscopicity [3]: very hygroscopic
